Measurements taken from patent US11633379B2, “Methods of inhibiting PCSK9” (TRUSTEES OF DARTMOUTH COLLEGE, priority 2017, dated 2023).

Tests used:
PCSK9 [1] = assay: Basal_PCSK9 HepG2, primary SP and CRC (secreted PCSK9, ELISA); type: cell-based, human
Experimental: To study the effect of the compounds on PCSK9 secretion we used 1×10^6 HepG2 cells in 6-well culture plates, followed by incubation with media only, media+0.1% DMSO or Media+5 uM of 31/33/34/35 in 0.1% DMSO and collection of 50 ul of media at 8, 16, 24 and 40 hours or incubation with increasing concentration (0.2-50 μM) of 34 in 0.1% DMSO for 24 hours and collection of 50 ul of media. The collected media was analyzed for PCSK9 levels using commercially available ELISA kit (MBL-international, catalog # CY-8079) following the manufacturer instruction.
The below data (Table 2) was generated using the assays as discussed in Examples 1-2. Blanks mean no testing was performed. […] For the SP assays, the higher the number, the higher the inhibition, e.g., the better the activity of the compound. Compounds with a determined IC50 are particularly active, the IC50 values were determined via dose response curve (under the heading CRC which stands for concentration response curve aka dose response curve).

PCSK9 [2] = assay: Intracellular PCSK9 protein in HepG2 cells (western blot); type: cell-based, human; details: FIG. 1A
Experimental: To study whether 34 affect intracellular PCSK9 levels we used 1×10^6 HepG2 cells in 6-well culture plates, followed by incubation with media+0.1% DMSO or increasing concentration (0.2-50 uM) of 34 in 0.1% DMSO for 24 hours. After 24 hours media was aspirated, cells were washed with HBSS followed by protein extraction using commercially available RIPA buffer (SIGMA-ALDRICH, catalog #20-188). Protein extracts (20 μg) were used for immunodetection of intracellular PCSK9 (western blot analysis) with a commercially available primary antibody against PCSK9 (MBL-international, catalog # CY-1037), HRP-conjugated secondary antibody (SIGMA-ALDRICH, catalog #12-348) visualized using an enhanced chemiluminescence (ECL) solution (Cumaric acid, Luminol and hydrogen peroxide), developed in a LiCore imager.

PCSK9 mRNA = assay: PCSK9 transcription in HepG2 cells (real-time PCR); type: cell-based, human; details: FIG. 1B
Experimental: To study whether 34 affect PCSK9 mRNA levels we used 1×10^6 HepG2 cells in 6-well culture plates, followed by incubation with media+0.1% DMSO or increasing concentration (0.2-50 μM) of 34 in 0.1% DMSO for 24 hours. After 24 hours media was aspirated, cells were washed with HBSS followed by RNA extraction kit (RNeasy, QIAGEN cat #74-104). mRNA was reversed transcribed to cDNA using commercially available kit (ThermoFisher, cat #4368814) and analyzed using real-time PCR for PCSK9 transcript levels using the relative expression method known as delta-delta CT.

HepG2 cells = assay: Cell survival, MTT assay; type: cell-based, human
Experimental: To study the effect of the compound on cell viability we used 1.25×10^5 HepG2 cells in 96-well culture plates, followed by incubation with media only, media+0.1% DMSO or Media+5 uM of 31/33/34/35 in 0.1% DMSO or with increasing concentration (0.2-50 μM) of 34 in 0.1% DMSO for 40 hours followed by a viability assay knows as MTT. The MTT assay is a colorimetric assay for assessing cell metabolic activity. NAD(P)H-dependent cellular oxidoreductase enzymes may, reflects the number of viable cells present. These enzymes are capable of reducing the tetrazolium dye MTT 3-(4,5-dimethylthiazol-2-yl)-2,5-diphenyltetrazolium bromide to its insoluble formazan, which has a purple color. Tetrazolium dye assays (commonalty known as the MTT assay) is used to measure cytotoxicity (loss of viable cells).

apoE [3] = assay: apoE secretion, HepG2 (ELISA); type: cell-based, human; details: HepG2, FIG. 7A
Experimental: The collected media was analyzed for apoE levels using commercially available ELISA kit (ABCAM, catalog #108813) following the manufacturer instruction.

apoE [4] = assay: Intracellular apoE, HepG2 (western blot); type: cell-based, human; details: 40 hours of incubation, HepG2, FIG. 7C
Source text: […] […] Protein extracts (25 μgr) were used for immunodetection of intracellular […] (western blot analysis) with a commercially available primary antibody against apoE (ABCAM, catalog #1906), HRP-conjugated secondary antibody (SIGMA-ALDRIC, catalog # A5420) visualized using an enhanced chemiluminescence (ECL) solution (Cumaric acid, Luminol and hydrogen peroxide), developed in a LiCore imager.

apoE mRNA = assay: apoE transcription, HepG2 (real-time PCR); type: cell-based, human; details: HepG2, FIG. 7B
Source text: , cells were washed with HBSS followed by RNA extraction kit (RNeasy, QIAGEN cat #74-104). mRNA was reversed transcribed to cDNA using commercially available kit (ThermoFisher, cat #4368814) and analyzed using real-time PCR for apoE transcript levels using the relative expression method known as delta-delta CT.

PCSK9 [5] = assay: Plasma PCSK9 levels in mice (ELISA); type: in vivo
Experimental: 1) Single-dose experiments: mice were administered (oral gavage or intra-peritoneal injection) with 200 μl of 34 (30 mg/kg or 100 mg/kg) in 0.1% Tween 80+1% hydroxyethyl cellulose (HEC) in buffered (PBS pH7.4) solution. After 34 administration, 50-70 μl of blood was collected from the retro-orbital plexus every 4-6 hours (for a total of 24 hours). Blood was left to clot at room temperature for 20 min, followed by serum separation (spin at 1000 g for 10 min). Serum was analyzed as specified in the “Serum analyses” section.
2) Daily dosage experiments: mice were administered daily oral gavage with 200 μl of 34 (100 mg/kg) in 0.1% Tween80+1% hydroxyethyl cellulose (HEC) in buffered (PBS pH7.4) solution. 50-70 μl of blood was collected from the retro-orbital plexus on day 3 and day 5 after 34 administration, on day 5 mice were euthanized and liver were collected and analyzed as mentioned below under the “Liver analyses” section. Blood was left to clot at room temperature for 20 min, followed by serum separation (spin at 1000 g for 10 min). Serum was analyzed as described below:
PCSK9 levels—using commercially available ELISA kit (MBL-international, catalog # CY-8079) following the manufacturer instruction.

CC(=O)Oc1ccc(C2CC3(CCCCC3)c3c2[nH]c2ccccc32)cc1 (stereo not drawn) [Compound 34]
Primary SP Basal_PCSK9 HepG2 SP % Inhib @ 5 μM (PCSK9 [1]; 5 μM, HepG2, single point): 5.2%
accumulation of PCSK9 in culture media (PCSK9 [1]; 5 μM, HepG2 cells, FIGS. 2A-2B): significantly reduced accumulation of PCSK9 in culture media in a time-dependent and concentration-dependent manner
Primary SP Basal_PCSK9 HepG2 SP % Inhib @ 50 μM (PCSK9 [1]; 50 μM, HepG2, single point): 100.1%
IC50 (PCSK9 [1]; HepG2, concentration response curve): 3.5 µM
activity rating in words (PCSK9 inhibition, Table 2) (PCSK9 [1]; summary of Table 2 data): particularly strongly active
intracellular PCSK9, pro-protein and mature forms (PCSK9 [2]): reduces levels of both the pro-protein and the mature forms of PCSK9 in a dose-dependent manner
PCSK9 mRNA levels (PCSK9 mRNA): reduces levels of PCSK9 mRNA in a dose-dependent manner
cell death (HepG2 cells; 20 μM and 50 μM, HepG2, FIG. 4B): increased cell death
HepG2 cell survival (MTT) (HepG2 cells; concentrations up to 5 μM, FIGS. 4A-4B): does not affect HepG2 cell survival at concentrations up to 5 μM
secreted apoE levels (apoE [3]): no changes in secreted, intracellular, or mRNA levels of apoE
intracellular apoE levels (apoE [4]): no changes in secreted, intracellular, or mRNA levels of apoE
apoE mRNA levels (apoE mRNA): no changes in secreted, intracellular, or mRNA levels of apoE
individual mice with a drop in PCSK9 levels (PCSK9 [5]; 5-day oral 100 mg/kg/day, FIG. 12B): all mice receiving compound 34 presented with a drop in PCSK9 levels
drop in plasma PCSK9 (PCSK9 [5]; 5-day oral 100 mg/kg/day, day 5, FIG. 12A): 36.2%
maximal drop in plasma PCSK9 (PCSK9 [5]; single 30 mg/kg intraperitoneal (IP) injection, 4 hours after administration, FIG. 9): 43.2%
maximal drop in plasma PCSK9 (PCSK9 [5]; single 30 mg/kg oral gavage, 4 hours after administration, FIG. 9): 22.5%
time after administration at which PCSK9 levels are back to baseline (PCSK9 [5]; single 30 mg/kg, IP or oral, FIG. 9): 20 h
maximal drop in plasma PCSK9 (PCSK9 [5]; single oral 30 mg/kg, 6 hours after administration, FIG. 10A): 28.5%
time after administration at which PCSK9 levels are back to baseline (PCSK9 [5]; single oral 30 mg/kg, FIG. 10A): 18 h
maximal drop in plasma PCSK9 (PCSK9 [5]; single oral 100 mg/kg, 6 hours after administration, FIG. 10B): 33.4%
time after administration at which PCSK9 levels are back to baseline (PCSK9 [5]; single oral 100 mg/kg, FIG. 10B): 24 h
